Source: US7189518B2, “Soluble CD40L(CD154) as a prognostic marker of atherosclerotic diseases” (The Brigham and Women's Hospital, Inc., priority 2001, dated 2007)

Tests used:
Format in all cases: cell-based
[1] = tested on: human vascular EC, SMC, and MØ; test: Western blot of CD40 and CD40L protein expression in cultured human vascular cells; conditions: for Concentration required to reduce CD40/CD40L expression: higher than for cerivastatin
Method: Viability of the cultures was determined by trypan blue (Sigma, St. Louis, Mo.) exclusion count as well as an oligonucleosome formation assay (Cell Death Detection ELISA, Boehringer Mannheim, Germany).
Culture lysates (50 μg total protein/lane) and supernatants were separated by SDS-PAGE and blotted to polyvinylidene difluoride membranes (Bio-Rad, Hercules, Calif.) using a semi-dry blotting apparatus (3 mA/cm^2, 30 min; Bio-Rad, Hercules, Calif.). Blots were blocked and primary (mouse-anti-human CD40 or CD40L; both 1:1,000; PharMingen, San Diego, Calif.) antibodies were added in 5% defatted dry milk/PBS/0.1% Tween 20. After 1 h, blots were washed three times (PBS/0.1% Tween 20) and secondary, peroxidase-conjugated, goat-anti-mouse antibody (Jackson Immunoresearch, West Grove, Pa.) was added (1 h). Finally, blots were washed and immunoreactive proteins were visualized using the Western blot chemiluminescence system (NEN™, Boston, Mass.). Data were verified by employing anti-CD40/-CD40L antibodies from Santa Cruz (Santa Cruz, Calif.).

[2] = tested on: human vascular EC and MØ; test: RT-PCR of CD40 and CD40L mRNA expression in cultured human vascular cells
Method: (§1) Human vascular EC and SMC were isolated from saphenous veins and cultured as described previously.^4,26 Mononuclear phagocytes (MØ) were isolated from leukocyte concentrates by density gradient centrifugation employing Lymphocyte Separation Medium (Organon-Teknika, Durham, N.C.) and were cultured (10 days) in RPMI 1640 (BioWhittaker, Walkersville, Md.) containing 2% human serum (Sigma; St. Louis, Mo.).^26 All cell types were cultured 24 h before and during the experiment in media lacking serum. Viability of the cultures was determined by trypan blue (Sigma, St. Louis, Mo.) exclusion count as well as an oligonucleosome formation assay (Cell Death Detection ELISA, Boehringer Mannheim, Germany).
Total RNA isolated from cultured EC, SMC, or MØ employing RNAzol (Tel-Test; Friendswood, Tex.) was assessed for purity and yield spectrophotometrically (2100 Bioanalyzer, Agilent Technologies, Wilmington, Del.) and was reverse-transcribed (2 μg total RNA; 50 min, 42° C.) employing Superscript II Reverse Transcriptase (LifeTechnologies, Carlsbad, Calif.). PCR was performed for 35 cycles at 95° C. (120 sec), 62° C. (120 sec), and 72° C. […] PCR products were analyzed on ethidium bromide-containing 1.3% agarose gels and visualized by UV transillumination. […]

[3] = tested on: human vascular EC, as well as MØ; test: Flow cytometry of CD40 and CD40L cell surface expression
Method: as §1
Human vascular EC, SMC, or MØ were washed with ice-cold PBS, harvested by trypsinization, and fixed (PBS/4% paraformaldehyde, 15 min). Subsequently, the cells were washed once with PBS/2% BSA before being incubated (1 h, 4° C.) with either buffer alone or FITC-conjugated control IgG, mouse-anti-human CD40, or mouse-anti-human CD40L antibody (1 μg/ml; PharMingen, San Diego, Calif.). Finally, cells were washed with PBS/2% BSA and analyzed in a Becton Dickinson FACSCAN® flow cytometer employing […]® software (Becton Dickinson; San Jose, Calif.). At least 20,000 viable cells per condition were analyzed.

COCc1c(C(C)C)nc(C(C)C)c(/C=C/[C@@H](O)C[C@@H](O)CC(=O)O)c1-c1ccc(F)cc1 [cerivastatin]
Concentration at which the constitutive as well as IL-1β/TNFα/IFNγ-induced expression of the receptor (CD40) was diminished ([1]; EC, Western blot): > 2 nM
Concentration for maximal inhibition of CD40 expression ([1]; EC, Western blot): 10 to 50 nM

CC(O)(CCO)CC(=O)O (centres unmarked) [Mevalonate]
Effect on the expression of CD40 and CD40L diminished by statins ([1]; protein, Western blot): reversed
Effect on the expression of CD40 and CD40L transcripts diminished by statins [2]: reversed

CC(C)c1c(C(=O)Nc2ccccc2)c(-c2ccccc2)c(-c2ccc(F)cc2)n1CC[C@@H](O)C[C@@H](O)CC(=O)O [atorvastatin]
Concentration required to reduce CD40/CD40L expression ([1]; Western blot): 100 nM
Constitutive as well as cytokine-induced expression of CD40 and CD40L protein and transcript ([1]; human vascular EC, SMC, and MØ, summary in the discussion, also covers RT-PCR): significantly diminished
Order of the statins by concentration needed for equal reduction in CD40/CD40L expression [3]: cerivastatin>simvastatin=atorvastatin

CCC(C)(C)C(=O)O[C@H]1C[C@@H](C)C=C2C=C[C@H](C)[C@H](CC[C@@H]3C[C@@H](O)CC(=O)O3)[C@H]21 [simvastatin]
Concentration required to reduce CD40/CD40L expression ([1]; Western blot): 100 nM
